Source: patent US20200010479A1, “INHIBITORS OF MICROBIAL BETA-GLUCURONIDASE ENZYMES AND USES THEREOF” (THE UNIVERSITY OF NORTH CAROLINA AT CHAPEL HILL, priority 2017, published 2020)

Experiments:
E. coli GUS = E. coli GUS (Escherichia coli, UniProt P05804); test: In vitro EcGUS inhibition, cleavage of PNPG by purified E. coli GUS; assay type: biochemical; settings: PNPG substrate, 37° C., 2 hours
Experimental: To assess GUS inhibition, cleavage of p-nitrophenyl-β-D-glucuronide (PNPG) by purified E. coli GUS in the presence of inhibitor was measured. The reaction was performed in 96-well clear-bottom plates at a volume of 50 μL. Each reaction contained 5 μL of 100 nM E. coli GUS, 5 μL of inhibitor at various concentrations, 10 μL of 250 mM HEPES and 250 mM NaCl assay buffer, and 30 μL of 1.5 mM PNPG. The reaction was initiated by addition of PNPG and incubated at 37° C. for 2 hours. End point absorbance values at 410 nm were measured using a PHERAstar Plus microplate reader. The resulting data were fit with a four-parameter logistic log function in SigmaPlot 13.0 to determine IC50 values. IC50 was defined as the concentration of inhibitor that yields a 50% reduction in product formation at equilibrium.

[1] = tested on: gut microbial GUS enzymes; settings: co-treatment with irinotecan; cited from earlier work
[2] = rats; cited from earlier work
[3] = tested on: panel of purified GUS enzymes present in the human gut microbiota; test: SN-38-G processing by panel of purified GUS enzymes, with inhibitors; assay type: biochemical; settings: enzymes other than E. coli GUS
[4] = tested on: GUS activity in human fecal extracts; settings: cited from earlier work
[5] = tested on: bacteria cultured in vitro; settings: cited from earlier work

Chain of E. coli GUS (P05804 whole entry): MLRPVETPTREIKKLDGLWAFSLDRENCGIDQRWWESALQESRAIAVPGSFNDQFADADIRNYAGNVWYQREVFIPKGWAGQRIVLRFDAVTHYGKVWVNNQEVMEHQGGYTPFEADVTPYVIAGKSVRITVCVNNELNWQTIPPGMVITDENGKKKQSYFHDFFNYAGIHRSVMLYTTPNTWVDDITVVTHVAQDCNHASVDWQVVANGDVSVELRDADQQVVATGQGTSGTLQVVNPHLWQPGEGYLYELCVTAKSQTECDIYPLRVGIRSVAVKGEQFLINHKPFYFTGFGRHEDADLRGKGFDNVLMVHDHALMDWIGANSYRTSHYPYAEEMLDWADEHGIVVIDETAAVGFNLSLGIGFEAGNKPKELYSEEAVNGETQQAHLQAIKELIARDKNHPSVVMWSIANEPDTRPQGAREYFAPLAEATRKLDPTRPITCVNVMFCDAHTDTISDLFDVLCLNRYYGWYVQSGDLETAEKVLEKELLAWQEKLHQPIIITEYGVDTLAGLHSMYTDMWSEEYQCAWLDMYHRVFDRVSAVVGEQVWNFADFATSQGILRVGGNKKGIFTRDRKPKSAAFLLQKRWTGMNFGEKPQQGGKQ

| SMILES | IC50 (E. coli GUS) [nM] | further results |
| --- | --- | --- |
| CN1CCN(c2nnnc3c2sc2nc(N4CCOCC4)c4c(c23)CCCC4)CC1 [Compound 2] | 37600 ± 700 |  |
| C1CCc2c(c(N3CCOCC3)nc3sc4c(NC5CCNCC5)nnnc4c23)C1 [Compound 4] | 30000 ± 10000 |  |
| C1CCc2c(c(N3CCOCC3)nc3sc4c(N5CC6CC5CN6)nnnc4c23)C1 (centres unmarked) [Compound 5] | 9000 ± 2000 |  |
| C[C@@H]1CN(c2nnnc3c2sc2nc(N4CCOCC4)c4c(c23)CCCC4)CCN1 [Compound 6] | 2400 ± 400 |  |
| C[C@H]1CN(c2nnnc3c2sc2nc(N4CCOCC4)c4c(c23)CCCC4)CCN1 [Compound 7] | 2400 ± 300 |  |
| C1CCc2c(c(N3CCOCC3)nc3sc4c(N5CCCNCC5)nnnc4c23)C1 [Compound 8] | 9000 ± 2000 |  |
| NCCNc1nnnc2c1sc1nc(N3CCOCC3)c3c(c12)CCCC3 [Compound 9] | 5600 ± 500 |  |
| C1CCc2c(c(N3CCNCC3)nc3sc4c(N5CCNCC5)nnnc4c23)C1 [Compound 12] | 130 ± 10 |  |
| C1CCN(c2nc3sc4c(N5CCNCC5)nnnc4c3c3c2CCCC3)CC1 [Compound 13] | 500 ± 200 |  |
| C1CCC(Nc2nc3sc4c(N5CCNCC5)nnnc4c3c3c2CCCC3)CC1 [Compound 14] | 800 ± 200 |  |
| CN(C)c1nc2sc3c(N4CCNCC4)nnnc3c2c2c1CCCC2 [Compound 15] | 130 ± 10 |  |
| c1ccc(CNc2nc3sc4c(N5CCNCC5)nnnc4c3c3c2CCCC3)cc1 [Compound 17] | 190 ± 40 |  |
| c1cc2c(nc1N1CCOCC1)sc1c(N3CCNCC3)nnnc12 [Compound 19] | 170 ± 40 |  |
| CNc1nc(N2CCNCC2)c2sc3nc(N4CCOCC4)ccc3c2n1 [Compound 21] | 100 ± 20 |  |
| c1ccc(-c2ccc3c(n2)sc2c(N4CCNCC4)nnnc23)cc1 [Compound 22] | 150 ± 50 |  |
| c1ccc(-c2ccc3c(n2)sc2c(N4CCNCC4)ncnc23)cc1 [Compound 23] | 130 ± 30 |  |
| CNc1nc(N2CCNCC2)c2sc3nc(-c4ccccc4)ccc3c2n1 [Compound 24] | 180 ± 90 |  |
| CN(C)c1nc(N2CCNCC2)c2sc3nc(-c4ccccc4)ccc3c2n1 [Compound 25] | 190 ± 90 |  |
| OCCNc1nc(N2CCNCC2)c2sc3nc(-c4ccccc4)ccc3c2n1 [Compound 26] | 120 ± 20 |  |
| CN(C)c1ccc2c(n1)sc1c(N3CCNCC3)nnnc12 [Compound 27] | 80 ± 30 |  |
| CNc1nc(N2CCNCC2)c2sc3nc(N(C)C)ccc3c2n1 [Compound 28] | 42 ± 6 |  |
| CNc1ccc2c(n1)sc1c(N3CCNCC3)nc(NC)nc12 [Compound 29] | 40 ± 8 |  |
| c1cnc2sc3c(N4CCNCC4)ncnc3c2c1 [Compound 30] | 80 ± 20 |  |
| CNc1nc(N2CCNCC2)c2sc3ncccc3c2n1 [Compound 31] | 36 ± 2 |  |
| CCOc1ccc(NC(=S)N(CCO)Cc2cc3cc(C)cc(C)c3[nH]c2=O)cc1 [Inh1] |  | gut toxicity and diarrhea [1]: alleviated gut toxicity and diarrhea; NSAID-induced intestinal anastomosis after surgical resection [2]: reduce NSAID-induced intestinal anastomosis; effects on other GUS enzymes, including others from the L1 category [3]: weak effects |
| Clc1ccc2c(c1)C(N1CCNCC1)=Nc1ccccc1O2 [amoxapine] |  | block of GUS activity in human fecal extracts [4]: incompletely blocks; viability of bacteria cultured in vitro [5]: reduced the viability |
